Source: PubChem BioAssay (NCI)
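Values below derive from 48-hour exposures of cells grown in 96-well plates, with endpoints linearly interpolated between the two concentrations bracketing the appropriate inhibition level. Abbreviation: GI50, concentration required for 50% inhibition of growth. TGI denotes the concentration required for complete inhibition of growth.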

Columns and labels:
Test in all cases: inhibition of tumour cell growth, NCI panel, 48 h
ACHN renal = system: ACHN renal
HCT-116 colon = system: HCT-116 colon
HCT-15 colon = system: HCT-15 colon
HT29 colon = system: HT29 colon
MALME-3M melanoma = system: MALME-3M melanoma
OVCAR-5 ovarian = system: OVCAR-5 ovarian
PC-3 prostate = system: PC-3 prostate
SF-295 CNS = system: SF-295 CNS
T-47D breast = system: T-47D breast
U251 CNS = system: U251 CNS

Row | SMILES | GI50 (ACHN renal) | TGI (ACHN renal) | GI50 (HCT-116 colon) | TGI (HCT-116 colon) | GI50 (HCT-15 colon) | TGI (HCT-15 colon) | GI50 (HT29 colon) | TGI (HT29 colon) | GI50 (MALME-3M melanoma) | TGI (MALME-3M melanoma) | GI50 (OVCAR-5 ovarian) | TGI (OVCAR-5 ovarian) | GI50 (PC-3 prostate) | TGI (PC-3 prostate) | GI50 (SF-295 CNS) | TGI (SF-295 CNS) | GI50 (T-47D breast) | TGI (T-47D breast) | GI50 (U251 CNS) | TGI (U251 CNS)
1 | O=C(COc1cccc(/C=C2\COc3ccccc3C2=O)c1)Nc1nccs1 | 1.86 µM | 3.55 µM | 1.76 µM | 3.15 µM | 3.11 µM | 10.2 µM | 1.94 µM | 3.72 µM | 1.82 µM | 3.49 µM | 2.65 µM | 10.1 µM | 1.37 µM | 3.46 µM | 1.73 µM | 3.26 µM | 3.13 µM | 12.5 µM | 1.73 µM | 3.11 µM
2 | Nc1cc(-c2ccccc2)ccc1O | 54.6 µM | > 100 µM | 54.6 µM | > 100 µM | 68.7 µM | > 100 µM | > 100 µM | > 100 µM | > 100 µM | > 100 µM | > 100 µM | > 100 µM | 21.6 µM | > 100 µM | 55.2 µM | > 100 µM | 55.3 µM | > 100 µM | > 100 µM | > 100 µM
3 | CCN(CC)CCOc1ccc(/C=C2\CC3C4CCC5=CC(=O)CC[C@]5(C)C4CC[C@]3(C)C2=O)cc1OC (some centres undefined) | 3.05 µM |  | 1.85 µM | 4.45 µM | 2.82 µM | 10.5 µM | 1.3 µM | > 100 µM | 1.5 µM | 2.95 µM | 3.6 µM | 17.4 µM | 2.92 µM | 13.9 µM | 2.01 µM | 4.06 µM | 3.14 µM | 17.1 µM | 2.57 µM | 8.39 µM
4 | O=C(N/N=C1\CCc2ccccc2C1)N/N=C1\CCc2ccccc2C1 |  | > 10 µM |  | > 10 µM |  | > 10 µM |  | > 10 µM |  | > 10 µM |  | > 10 µM |  | > 10 µM |  | > 10 µM |  | > 10 µM |  | > 10 µM
5 | O=S1(=O)CCN(Cc2ccccn2)CC1 |  | > 100 µM |  | > 100 µM |  | > 100 µM |  | > 100 µM |  | > 100 µM |  | > 100 µM |  | > 100 µM |  | > 100 µM |  | > 100 µM |  | > 100 µM
6 | C(=C1c2ccccc2-c2ccccc21)c1ccccn1 | 26.6 µM | > 100 µM | 5.07 µM | 24.6 µM | 6.21 µM | 49.3 µM | 3.56 µM | 16.7 µM | 3.61 µM | 27 µM | 21.8 µM | > 100 µM | 22.7 µM | > 100 µM | 1.57 µM | 5.97 µM | 5.03 µM | 50.9 µM | 6.22 µM | 70.9 µM
7 | COc1ccc(O)c(C(=O)c2ccc(C(=O)O[C@@H]3CCCNC[C@H]3NC(=O)c3ccncc3)cc2)c1F | 1.49 µM | > 25 µM | 1.04 µM | > 25 µM | 0.918 µM | > 25 µM | 0.944 µM | > 25 µM | 1.57 µM | > 25 µM | > 19.3 µM | > 25 µM | 3.74 µM | > 25 µM | 0.77 µM | > 25 µM | 1.36 µM | > 25 µM | 1.17 µM | > 22.7 µM
8 | CO[C@@H]1[C@@H](OC2OC(C)C(OC3CC(C)(O)C(OC(=O)CC(C)C)C(C)O3)C(N(C)C)C2O)[C@@H](CC=O)C[C@@H](C)C(=O)/C=C/C2O[C@H]2C[C@@H](C)OC(=O)C[C@H]1OC(C)=O (some centres undefined) |  | 46.8 µM |  | 30.8 µM |  | 36 µM |  | 26.4 µM |  | 27.9 µM |  | 31.8 µM |  | 38.4 µM |  | 48.2 µM |  | 84.4 µM |  | 35.7 µM
